The record followed here is US4166125A, “2-Oxo-phenylbutanoic acid derivatives” (Grelan Pharmaceutical Co., Ltd., priority 1977, dated 1979).

A value given as a limit tells only on which side of the number the result lay.

One series has as its system carrageenin edema. As to the kind of experiment: Inhibitory effect on carrageenin edema (oral administration). It counts as in vivo, rat (Sprague-Dawley strain). Here is the method:
Inhibitory effect on carrageenin edema.
The experiment was carried out according to a method conforming to Van Arman, C. […] One hour after the administration of the test compound, 0.1 ml of 1% carrageenin solution in physiological saline was injected subcutaneously into the plantar sarface of the right hind paws of the rats. One hour after injection of carrageenin, the volume of the injected paws was measured hourly for 4 hours. Inhibition percent to carrageenin edema (%)* was calculated in comparison with the volume of paws of rats of a control group, to which only 0.3% CMC-Na solution was orally administered. [formula]
In general terms: In the carrageenan paw model, swelling and tenderness develop within hours.

The test system of series [1] is writhing syndrome due to acetic acid. As to the kind of experiment: Analgesic activity, stretching method (oral administration). It counts as in vivo, mouse (ddY-strain). Here is the method:
The experiment was carried out according to a method conforming to Koster R. et al [Federation Proceedings 18, 412, (1960)]. […] 30 Minutes after administration of the test compound, 0.6% acetic acid aqueous solution was injected intraperitoneally to the mice in an amount of 0.1 ml per 10 g of body weight of the mouse, and then frequency of writhing syndrome due to acetic acid was counted for 20 minutes. Inhibition percent to the writhing syndrome was calculated in comparison with frequency of writhing syndrome counted on mice of a control group, to which only 1% gum arabic solution was orally administered.

Series [2] can be described thus: Acute toxicity (2) (oral administration). Format: in vivo. To be noted: in vivo; rat, oral, 7 days. The protocol:
(§1) After administration of the compound, the number of rats that died during 7 days was observed, and LD50 value was calculated on the basis of the mortality.

In the next series the test system is rats. As to the kind of experiment: Acute toxicity (2) (oral administration). It counts as in vivo. As to conditions: rats. The protocol:
as §1

Another series deals with gastric mucosa. As to the kind of experiment: Effect on gastric mucosa (1) (oral administration). Details: unit not given here. It counts as in vivo, mouse (ddY-strain). As to conditions: mice, 4 hours. The protocol:
4 Hours after the administration, the mouse was sacrificed with ether, and its stomach was removed. The stomach was treated with 5% formalin for 3 minutes, and gastric mucosa was observed under a stereoscopic microscope. When gastric lesion in the mucosa was found, the length of each lesion was measured. Degree of gastric damage (i.e. GD50)* was calculated on the basis of the length of the lesion of each mouse.
Remark *: GD50 : The value corresponding to the relative frequency of 50% on the normal probability paper plotted the length of gastric lesions of each mouse.

Where [3] appears, read: oral, 500, 1000, 2000 and 4000 mg/Kg, 7 days.

What is called LD50 is the dose at which mortality reaches 50%.

Take `CC(C(=O)C(N)=O)c1ccc(N2Cc3ccccc3C2=O)cc1` (stereo not drawn) [2-oxo-3-[4-(1-oxo-2-isoindolinyl)phenyl]butanamide]: the “Inhibition to carrageenin edema” value in the series with carrageenin edema (12.5 mg/Kg oral, 3 hour after administration) was 29.2 ± 6.4%; in the series with carrageenin edema (12.5 mg/Kg oral, 4 hour after administration), 29.3 ± 4.4%; in the series with carrageenin edema (25 mg/Kg oral, 3 hour after administration), 29.2 ± 9.0%; in the series with carrageenin edema (25 mg/Kg oral, 4 hour after administration) it was 26.6 ± 8.2%; in the series on carrageenin edema (50 mg/Kg oral, 3 hour after administration) it was 35.6 ± 3.9%; in the series on carrageenin edema (50 mg/Kg oral, 4 hour after administration) it was 34.1 ± 1.2%. For the same compound, the “Inhibition to carrageenin edema” value in the series on carrageenin edema (100 mg/Kg oral, 3 hour after administration) came out at 51.0 ± 8.6%; with carrageenin edema (100 mg/Kg oral, 4 hour after administration), 42.8 ± 6.9%. For the same compound, the ED40 in the series with carrageenin edema (Rattus norvegicus, oral, from inhibition percent to edema at 3 hours after administration, read-out: ED40) came to 48 mg/kg. Besides, the “Inhibition to writhing syndrome” value in series [1] (100 mg/Kg oral) came out at 4%; in series [1] (200 mg/Kg oral), 33%; in series [1] (400 mg/Kg oral), 62%. For the same compound, the “Dose-response of inhibition to writhing syndrome” value in series [1] (dose range of 100 to 400 mg/Kg) is on record as “clear dose-response”. Further, the LD50 at 168 h in series [2] was > 4000 mg/kg. In addition, in the series on rats (after 7 days), the “Macroscopic observation of organs in head, thorax and abdominal cavity” value is recorded as “No abnormality was observed”. The Abnormal behaviour result in the series on rats (setting [3]) is “not observed”. For the same compound, the Death entry in the series on rats (setting [3]) is recorded as “not observed”. The “Inhibition to increase of body weight” value in the series with rats (setting [3]) is “not observed”. Also, the “Degree of gastric damage (GD50)” value in the series with gastric mucosa (100 mg/Kg oral) is given as 1.0; in the series with gastric mucosa (200 mg/Kg oral), 7.0; in the series with gastric mucosa (400 mg/Kg oral), 2.5.
